The subject of one assay is prenylation of GST-Rap. As to the kind of experiment: In vitro prenylation assay with farnesyl transferase inhibitor (mevalonate prenylation in rabbit reticulocyte lysate). The assay is classed as biochemical. The following applies: 1-100 nM FTI concentration range. An excerpt:
(§1) In this Example, experiments performed to determine the in vitro prenylation characteristics of Rig, Ras and Rap are described. Radiolabelled farnesyl pyrophosphate, radiolabelled geranylgeranyl pyrophosphate or radiolabelled mevalonate were alternatively used as substrates in these assays, to determine the prenylation specificity of each GTPase protein. In addition, the ability of a farnesyl transferase inhibitor (FTI; namely, FTI-277, Calbiochem, Catalog No. 344555) to inhibit the prenylation of Rig, Ras and Rap was examined. Purified GST-Rig, GST-H-Ras (G12V) and GST-Rap fusion proteins were used in the in vitro prenylation experiments. The H-Ras(G12V) protein was included in the prenylation assays to serve as a positive control (Clark et al., Proc. Natl. Acad. Sci. USA 90:4887-4891 [1993]).
(§2) The GST-Rig fusion construct was made by cloning a restriction fragment containing the Rig ORF in frame into the BamHI/EcoRI sites of pGEX-2T (Pharmacia). The vector encoding GST-H-Ras(G12V) was made by subcloning an H-Ras (G12V) BamHI/EcoRI PCR product into the BamHI/EcoRI sites of the pGEX-2T vector. The product was confirmed by sequencing. The GST-Rap fusion construct was produced as described by Clark et al. (Clark et al., J. Biol. Chem., 272:10608-10615 [1997]).
(§3) The resulting plasmids were transformed into competent XL1-Blue Escherichia coli (Stratagene), and the GST-fusion proteins produced by the bacteria were isolated by standard techniques, according to the manufacturer's protocol (Pharmacia), with minor modification (inclusion of 100 μM GTP and the omission of EDTA from the protein collection/purification buffers). Briefly, bacteria were grown to an OD600 of 0.1 in LB broth. At that time, […] isopropyl-β-thiogalactopyranoside (IPTG) was added to the culture. Four hours following IPTG induction, the bacteria were pelleted at 3,000 RPM for 20 minutes, and resuspended in 5 mL lysis buffer (phosphate buffered saline [PBS] containing 100 μM GTP, 0.1% Triton X−100, leupeptin and aprotinin). The lysate was sonicated, then clarified by centrifugation at 10,000 RPM for 30 minutes. The resulting lysate was used as starting material for glutathione-conjugated agarose bead purification (Sigma) using standard techniques. […]
(§4) Each in vitro prenylation reaction contained approximately 1-2 μg alternatively of GST, GST-Rig, GST-H-Ras(G12V) or GST-Rap. […] The gel was soaked in fixing buffer (water with 10% methanol and 10% acetic acid), soaked in autofluor (National Diagnostics, Catalog No. LS315) and analyzed by autoradiography.
(§5) In a second experiment, the sensitivity of mevalonate prenylation of GST-Rig, GST-Ras and GST-Rap, to increasing amounts of farnesyl transferase inhibitor (FTI-277; Calbiochem) was assessed. […] The gel was fixed, soaked in autofluor and analyzed by autoradiography.

The subject of assay [1] is prenylation of GST-Ras(G12V). Described as above. In kind it is biochemical.
Text: as §1, §2, §3, §4, §5

Another assay relates to prenylation of GST-Rig. Described as above. In kind it is biochemical, human.
Text: as §1, with “[1993]). […]” for “[1993]).”
as §4, §5

The target of a further assay is T1, Raf-1 (Homo sapiens, UniProt P04049).
T1 construct: HA-RAF-1 fusion protein expression vector was produced by generating a full-length BamHI-compatible PCR fragment from a Raf-1 template; expressed in transfected cells; host or cells: HEK-293T
Briefly: In vivo Rig/Raf-1 co-immunoprecipitation in HEK-293T cells. The assay is classed as binding. The following applies: HEK-293T cells co-transfected with HA-Raf-1. An excerpt:
In this Example, experiments to assess the ability of Rig and Raf-1 to interact in vivo are described. These experiments (results shown in FIG. 9) used a standard in vivo co-transfection/co-immunoprecipitation protocol, where cultured mammalian cells were cotransfected with FLAG-tagged and/or hemagglutinin (HA)-tagged mammalian expression vector constructs, followed by immunoprecipitation with an anti-Raf-1 antibody and Western immunoblotting using either anti-FLAG or anti-HA primary detection antibodies. The assay was conducted using HEK-293T cells, a transformed human embryonal kidney cell line.
Briefly, HA-RAF-1 fusion protein expression vector was produced by generating a full-length BamHI-compatible PCR fragment from a Raf-1 template (Fabian et al., Proc. Natl. Acad.Sci. USA 91:5982-5986 [1994]), then cloned into the BamHI site of pCGN, which also encodes the HA epitope (Fiordalisi et al, Methods Enzymol., 332:3-36 [2001]). The construct was confirmed by sequencing.
A pCDNA3.1 (FLAG) expression vector was produced by inserting the FLAG epitope in-frame upstream of the BamHI restriction site of the multiple cloning region of pCDNA3.1 (Invitrogen). […]
Following transfection, the cells were cultured in DMEM containing 1% FBS for 48 hours. […] Membranes were then incubated in enhanced chemiluminescent substrate (ECL; Amersham) and the signal was detected on X-ray film.

[2] abbreviates: FTI 1-100 nM, [3H]-mevalonate, one hour at 30 °C.

Turning to `COC(=O)[C@H](CCSC)NC(=O)c1ccc(NC[C@@H](N)CS)cc1-c1ccccc1` [FTI-277], the “sensitivity of GST-Rap farnesylation by mevalonate to FTI” value with prenylation of GST-Rap was “did not show sensitivity”. In addition, the “farnesylation of GST-Ras at 100 nM FTI” value in assay [1] (100 nM FTI concentration) was “completely abolished”. Further, the “sensitivity of mevalonate prenylation (radiolabelling) of GST-Ras to FTI” value in assay [1] (setting [2]) was “sensitive”. The “sensitivity of GST-Ras prenylation relative to GST-Rig” value in assay [1] (comparison of the two proteins, FTI 1-100 nM) was “greater sensitivity”. Besides, in the assay with prenylation of GST-Rig (100 nM FTI concentration), the “farnesylation of GST-Rig at 100 nM FTI” value is reported as “completely abolished”. For the same molecule, the “sensitivity of mevalonate prenylation (radiolabelling) of GST-Rig to FTI” value in the assay on prenylation of GST-Rig (setting [2]) is reported as “sensitive”.

B1: FLAG-Rig: FLAG-tagged recombinant Rig protein expressed from pCDNA-FLAG (protein)
chain: MPEQSNDYRVVVFGAGGVGKSSLVLRFVKGTFRDTYIPTIEDTYRQVISCDKSVCTLQITDTTGSHQFPAMQRLSISKGHAFILVFSVTSKQSLEELGPIYKLIVQIKGSVEDIPVMLVGNKCDETQREVDTREAQAVAQEWKCAFMETSAKMNYNVKELFQELLTLETRRNMSLNIDGKRSGKQKRTDRVKGKCTLM
modifications: left off: small tags and cut ends
Turning to B1, the “co-precipitation with Raf-1 (anti-Raf-1 immunoprecipitation)” value with Raf-1 is reported as “coprecipitated”.

The values above are taken from patent US20030059771A1, “Compositions and methods related to the Rig tumor suppressor gene and protein” (THE UNITED STATES OF AMERICA, Department of Health and …, priority 2001, published 2003).
